Laboratory results as given in PMC13129536 (The Journal of Biological Chemistry, 2026).

Test system: Mtb (mc^26030)
Type: cell-based, Mycobacterium tuberculosis
Settings: combined with meropenem

Compound | FICA (apparent FIC)
Cc1ccc(C)c(Nc2nc(NCc3ccccc3)c3ccccc3n2)c1 [Compound F0909-0124] | greater than 5.0
c1ccc(-c2nc3cc(Cc4ccc5[nH]c(-c6ccccn6)nc5c4)ccc3[nH]2)nc1 [Compound F0850-5995] | greater than 5.0
